Our source for the IC50 values is patent US20240101571A1, “NLRP3 MODULATORS” (Zomagen Biosciences Ltd, priority 2020, published 2024).

Assay [1] concerns IL-1b. The experiment in a line: Human Whole Blood (HWB) IL-1b Assay. It counts as cell-based. To be noted: compound 0.5 h, 100 ng/mL LPS 3.5 h, 5 mM ATP 45 min, IL-1b ELISA of supernatant. The protocol: Assay run as in Tran et al. “Whole blood assay as a model for in vitro evaluation of inflammasome activation and subsequent caspase-mediated interleukin-1 beta release” PLoSONE 14(4): e0214999.https://doi.org/10.1371/journal.pone.0214999. Namely, freshly drawn human whole blood with anti-coagulant was incubated with test compounds at various titration points for 0.5 hrs at 37° C. in 5% CO2. The cells were subsequently primed with 100 ng/mL LPS for 3.5 hours at 37° C. followed by stimulation with 5 mM ATP for an additional 45 minutes. The supernatant was harvested and analyzed for human IL-1b concentration using commercially available ELISA kits.
On the technique in general: An ELISA detects its analyte on a solid surface through an enzyme-linked reagent.

For assay [2], the system named is IL-1b. The experiment in a line: Mouse BMDM IL-1b Assay. To be noted: Macrophage, C57BL6 bone marrow derived macrophages, 200 ng/mL LPS 3 h, compound 30 min, 5 mM ATP 45 min, IL-1b ELISA of supernatant. It counts as cell-based. The protocol: Mouse bone marrow cells from C57BL6 tibia and femur were culture in complete Isocov's Media supplemented with 20 ng/mL MCSF (BMDM media) at a density of 50 million cells/15 cm Petri dish. Fresh media was changed every 3 days, and bone marrow derived macrophages were collected, washed, and counted on day 7. Cells were seeded into 96 well plates at a density of 5×10^4 cells per well in 100 uL of BMDM media and cultured overnight. The cells were stimulated at 37° C. with 200 ng/mL Ultrapure LPS-B5 for 3 hours before pre-diluted compounds were added. 30 minutes after compound addition, 5 mM ATP was added for the secondary stimulation for 45 minutes. After stimulation, the plates were briefly spun down, and 50 uL of supernatant was harvested from each well. ELISA for mouse IL-1b was performed with 1:10 and 1:100 diluted supernatant using pre-coated kits. IL-1b concentrations were calculated based on pre-titrated standards, and compound inhibition IC50 is generated using the Levenberg Marquardt damped lease-square method.

The term IC50 denotes the concentration needed to halve the response being measured.

On to `O=C(Nc1c2c(cc3c1CCC3)CCC2)NS(=O)(=O)c1cc2c(o1)C1CCN(CC1)C2` [Compound 13, sodium ((1,2,3,5,6,7-hexahydro-s-indacen-4-yl)carbamoyl)((4,6,7,8-tetrahydro-5,8-ethanofuro[3,2-c]azepin-2-yl)sulfonyl)amide], for which the IC50 in the assay on IL-1b [1] is less than 1000 nM; in the assay on IL-1b [2] it was less than 100 nM.
Take `O=C(Nc1c2c(cc3c1CCC3)CCC2)NS(=O)(=O)c1cc2c(s1)C1CCN(CC1)C2` [Compound 25]: in the assay on IL-1b [1], the IC50 was less than 1000 nM.
Molecule `O=C(Nc1c2c(cc3c1CCC3)CCC2)NS(=O)(=O)c1cc2c(s1)C1CCN(CC1)C2` [Compound 26, sodium ((1,2,3,5,6,7-hexahydro-s-indacen-4-yl)carbamoyl)((4,6,7,8-tetrahydro-5,8-ethanothieno[3,2-c]azepin-2-yl)sulfonyl)amide] registered an IC50 in the assay on IL-1b [2] of less than 100 nM.
For `COc1cc(-c2ccc3c(c2NC(=O)NS(=O)(=O)c2cc4c(o2)C2CCN(CC2)C4)CCC3)ccn1` [Compound 27, N-((5-(2-methoxypyridin-4-yl)-2,3-dihydro-1H-inden-4-yl)carbamoyl)-4,6,7,8-tetrahydro-5,8-ethanofuro[3,2-c]azepine-2-sulfonamide], the IC50 with IL-1b [1] is less than 1000 nM.
In the case of `COc1cc(-c2ccc3c(c2NC(=O)NS(=O)(=O)c2cc4c(s2)C2CCN(CC2)C4)CCC3)ccn1` [Compound 28, N-((5-(2-methoxypyridin-4-yl)-2,3-dihydro-1H-inden-4-yl)carbamoyl)-4,6,7,8-tetrahydro-5,8-ethanothieno[3,2-c]azepine-2-sulfonamide], the IC50 in the assay with IL-1b [1] is less than 1000 nM.
The molecule `CC(C)c1ccc2c(c1NC(=O)NS(=O)(=O)c1cc3c(o1)C1CCN(CC1)C3)CCC2` [Compound 29, N-((5-isopropyl-2,3-dihydro-1H-inden-4-yl)carbamoyl)-4,6,7,8-tetrahydro-5,8-ethanofuro[3,2-c]azepine-2-sulfonamide] returned an IC50 with IL-1b [1] of less than 1000 nM.
Molecule `CC(C)c1cc(F)c2c(c1NC(=O)NS(=O)(=O)c1cc3c(o1)C1CCN(CC1)C3)CCC2` [Compound 30, N-((7-fluoro-5-isopropyl-2,3-dihydro-1H-inden-4-yl)carbamoyl)-4,6,7,8-tetrahydro-5,8-ethanofuro[3,2-c]azepine-2-sulfonamide] gave an IC50 in the assay with IL-1b [1] of less than 1000 nM.
Turning to `CC(C)c1ccc(F)c(C(C)C)c1NC(=O)NS(=O)(=O)c1cc2c(o1)C1CCN(CC1)C2` [Compound 31, N-((3-fluoro-2,6-diisopropylphenyl)carbamoyl)-4,6,7,8-tetrahydro-5,8-ethanofuro[3,2-c]azepine-2-sulfonamide], the IC50 with IL-1b [1] was less than 1000 nM.
Same read-out and setting: in the case of `O=C(Nc1c2c(c(F)c3c1CCC3)CCC2)NS(=O)(=O)c1cc2c(o1)C1CCN(CC1)C2` [Compound 32, N-((8-fluoro-1,2,3,5,6,7-hexahydro-s-indacen-4-yl)carbamoyl)-4,6,7,8-tetrahydro-5,8-ethanofuro[3,2-c]azepine-2-sulfonamide] it was less than 1000 nM; in that of `N#Cc1c2c(c(NC(=O)NS(=O)(=O)c3cc4c(o3)C3CCN(CC3)C4)c3c1CCC3)CCC2` [Compound 33, N-((8-cyano-1,2,3,5,6,7-hexahydro-s-indacen-4-yl)carbamoyl)-4,6,7,8-tetrahydro-5,8-ethanofuro[3,2-c]azepine-2-sulfonamide], 1000 to 10000 nM; in that of `CC(C)c1cc(F)cc(C(C)C)c1NC(=O)NS(=O)(=O)c1cc2c(o1)C1CCN(CC1)C2` [Compound 34, N-((4-fluoro-2,6-diisopropylphenyl)carbamoyl)-4,6,7,8-tetrahydro-5,8-ethanofuro[3,2-c]azepine-2-sulfonamide], 1000 to 10000 nM.
In the assay on IL-1b [1], `CC(C)c1c(F)c(Cl)c(F)c(C(C)C)c1NC(=O)NS(=O)(=O)c1cc2c(o1)C1CCN(CC1)C2` [Compound 35, N-((4-chloro-3,5-difluoro-2,6-diisopropylphenyl)carbamoyl)-4,6,7,8-tetrahydro-5,8-ethanofuro[3,2-c]azepine-2-sulfonamide] registered an IC50 of less than 1000 nM.
The same measure, in the same setting: the figure for `CC(C)c1c(F)cc(F)c(C(C)C)c1NC(=O)NS(=O)(=O)c1cc2c(o1)C1CCN(CC1)C2` [Compound 36, N-((3,5-difluoro-2,6-diisopropylphenyl)carbamoyl)-4,6,7,8-tetrahydro-5,8-ethanofuro[3,2-c]azepine-2-sulfonamide] is 1000 to 10000 nM.
`O=C(Nc1c(C2CCOCC2)ccc2c1CCC2)NS(=O)(=O)c1cc2c(o1)C1CCN(CC1)C2` [Compound 37, N-((5-(tetrahydro-2H-pyran-4-yl)-2,3-dihydro-1H-inden-4-yl)carbamoyl)-4,6,7,8-tetrahydro-5,8-ethanofuro[3,2-c]azepine-2-sulfonamide] had an IC50 in the assay on IL-1b [1] of 1000 to 10000 nM.
The molecule `O=C(Nc1c(C2CC2)ccc2c1CCC2)NS(=O)(=O)c1cc2c(o1)C1CCN(CC1)C2` [Compound 38, N-((5-cyclopropyl-2,3-dihydro-1H-inden-4-yl)carbamoyl)-4,6,7,8-tetrahydro-5,8-ethanofuro[3,2-c]azepine-2-sulfonamide] gave an IC50 with IL-1b [1] of less than 1000 nM.
Take `O=C(Nc1c(C2CCCC2)ccc2c1CCC2)NS(=O)(=O)c1cc2c(o1)C1CCN(CC1)C2` [Compound 39, N-((5-cyclopentyl-2,3-dihydro-1H-inden-4-yl)carbamoyl)-4,6,7,8-tetrahydro-5,8-ethanofuro[3,2-c]azepine-2-sulfonamide]: the IC50 with IL-1b [1] was in the range of 1000 to 10000 nM.
The same measure, in the same setting: the figure for `O=C(Nc1c2c(cc3c1CCO3)CCC2)NS(=O)(=O)c1cc2c(o1)C1CCN(CC1)C2` [Compound 40, N-((3,5,6,7-tetrahydro-2H-indeno[5,6-b]furan-4-yl)carbamoyl)-4,6,7,8-tetrahydro-5,8-ethanofuro[3,2-c]azepine-2-sulfonamide] is less than 1000 nM; for `O=C(Nc1c(C(F)(F)F)ccc2c1CCC2)NS(=O)(=O)c1cc2c(o1)C1CCN(CC1)C2` [Compound 41, N-((5-(trifluoromethyl)-2,3-dihydro-1H-inden-4-yl)carbamoyl)-4,6,7,8-tetrahydro-5,8-ethanofuro[3,2-c]azepine-2-sulfonamide] it is less than 1000 nM.
As to `O=C(Nc1c(C2CCC2)ccc2c1CCC2)NS(=O)(=O)c1cc2c(o1)C1CCN(CC1)C2` [Compound 42, N-((5-cyclobuty1-2,3-dihydro-1H-inden-4-yl)carbamoyl)-4,6,7,8-tetrahydro-5,8-ethanofuro[3,2-c]azepine-2-sulfonamide], in the assay on IL-1b [1], the IC50 was in the range of 1000 to 10000 nM.
Regarding `O=C(Nc1c(C2=CCC2)ccc2c1CCC2)NS(=O)(=O)c1cc2c(o1)C1CCN(CC1)C2` [Compound 43, N-((5-(cyclobut-1-en-1-yl)-2,3-dihydro-1H-inden-4-yl)carbamoyl)-4,6,7,8-tetrahydro-5,8-ethanofuro[3,2-c]azepine-2-sulfonamide], in the assay on IL-1b [1], the IC50 fell in the range of 1000 to 10000 nM.
`CC#Cc1ccc2c(c1NC(=O)NS(=O)(=O)c1cc3c(o1)C1CCN(CC1)C3)CCC2` [Compound 44, N-((5-(prop-1-yn-1-yl)-2,3-dihydro-1H-inden-4-yl)carbamoyl)-4,6,7,8-tetrahydro-5,8-ethanofuro[3,2-c]azepine-2-sulfonamide] displayed an IC50 with IL-1b [1] of 1000 to 10000 nM.
